Laboratory results published in PMC9305971, “Development of [^18F]AmBF3 Tetrazine for Radiolabeling of Peptides: Preclinical Evaluation and PET Imaging of [^18F]AmBF3-PEG7-Tyr^3-Octreotide in an AR42J Pancreatic Carcinoma Model” (Bioconjugate Chemistry, 2022).

Legend:
[1] = Lipophilicity, shake-flask log D7.4 (1-octanol/PBS); assay type: physicochemical; conditions: 1-octanol/PBS pH 7.4, n = 4
Procedure: Lipophilicity was determined with the shake-flask method as a distribution coefficient between 0.01 M PBS and octanol. Purified radiotracer [^18F]6 (10 μL, ∼200 kBq, 1.5 nmol), [^18F]14 (20 μL, ∼260 kBq, 125 pmol), or [^18F]15 (20 μL, 144 kBq, 67 pmol) in a polypropylene tube containing 1500–2000 μL of each in a 1:1 mixture (1-octanol, 0.02 M PBS, pH 7.4) was shaken mechanically (500 rpm, 10 min) and centrifuged (1000g, 5 min), and samples from each layer (400 μL, n = 4) were measured with a γ-counter. The log D7.4 was calculated as a distribution between the two layers at pH 7.4. [^18F]6 (10 MBq, 40 nmol) diluted with 0.01 M PBS at pH 7.4 (≤1% ethanol, 5300 μL) was incubated for 180 min. At selected time points (5, 30, 60, 90, 120, 150, and 180 min), a sample (100 μL) was injected to radio-HPLC. [^18F]14 and [^18F]15 (29 MBq, 10 nmol) diluted in 2000 μL of 0.01 M PBS (≤1% ethanol) were left to incubate. A sample of [^18F]14 (100 μL) after 9 hours and [^18F]15 at selected time points between 30 and 335 min were injected into HPLC (method A). [^18F]15 (0.6 MBq, 0.134 nmol, 200 μL) formulated in ≤5% EtOH-1 × PBS was added and incubated in 2000 μL of PBS-50% human plasma at 37 °C. A 100 μL sample (at 60, 120, 180, and 240 min, n = 2) was diluted with 200 μL of cold acetonitrile and centrifuged (10,000g, 5 min). After centrifugation, a 100 μL sample of the supernatant was injected for radio-HPLC analysis. […]
Lipophilicity. The lipophilicities were determined with the shake-flask method as a distribution profile between 0.01 M PBS and octanol at pH 7.4. The distribution of the radiolabeled compound between the octanol and the PBS layers was calculated according

[2] = Hydrolytic stability in 0.01 M PBS / formulated solution (radio-HPLC); assay type: physicochemical; conditions: t = 3 h, 0.01 M PBS, pH 7.4
Procedure: Lipophilicity was determined with the shake-flask method as a distribution coefficient between 0.01 M PBS and octanol. Purified radiotracer [^18F]6 (10 μL, ∼200 kBq, 1.5 nmol), [^18F]14 (20 μL, ∼260 kBq, 125 pmol), or [^18F]15 (20 μL, 144 kBq, 67 pmol) in a polypropylene tube containing 1500–2000 μL of each in a 1:1 mixture (1-octanol, 0.02 M PBS, pH 7.4) was shaken mechanically (500 rpm, 10 min) and centrifuged (1000g, 5 min), and samples from each layer (400 μL, n = 4) were measured with a γ-counter. The log D7.4 was calculated as a distribution between the two layers at pH 7.4. [^18F]6 (10 MBq, 40 nmol) diluted with 0.01 M PBS at pH 7.4 (≤1% ethanol, 5300 μL) was incubated for 180 min. At selected time points (5, 30, 60, 90, 120, 150, and 180 min), a sample (100 μL) was injected to radio-HPLC. [^18F]14 and [^18F]15 (29 MBq, 10 nmol) diluted in 2000 μL of 0.01 M PBS (≤1% ethanol) were left to incubate. A sample of [^18F]14 (100 μL) after 9 hours and [^18F]15 at selected time points between 30 and 335 min were injected into HPLC (method A). [^18F]15 (0.6 MBq, 0.134 nmol, 200 μL) formulated in ≤5% EtOH-1 × PBS was added and incubated in 2000 μL of PBS-50% human plasma at 37 °C. A 100 μL sample (at 60, 120, 180, and 240 min, n = 2) was diluted with 200 μL of cold acetonitrile and centrifuged (10,000g, 5 min). After centrifugation, a 100 μL sample of the supernatant was injected for radio-HPLC analysis.

[3] = PET/CT and ex vivo biodistribution of [18F]6 in healthy mice; parameters: species or system male SCID and female C57BL/6JRj mice; conditions: i.v.; for bone uptake in tibia / gallbladder uptake: 270 min post injection
Procedure: [^18F]6 in 10% ethanol–0.01 M PBS was administered intravenously to male Fox Chase SCID mice (CB.17 SCID) (11.0 ± 0.5 MBq, ∼11 nmol, ∼150 μL, n = 4) and healthy female C57BL/6JRj mice (11.3 ± 0.3 MBq, ∼11 nmol, ∼150 μL, n = 4) under 2% isoflurane anesthesia. The PET/CT image was acquired with Inveon PET/CT for 60 min followed by a 15 min static scan 4 h after injection of the tracer. The images of the dynamic scan were reconstructed to time frames 60 × 10, 10 × 60, 4 × 300, and 3 × 600 s. After the second PET imaging (t = 270 ± 1.9 min post injection, n = 4), the organs were harvested and the radioactivity in each tissue sample was measured with a γ-counter and reported as a percentage of injected dose per gram of tissue (% ID/g). [^18F]15 was formulated in 4% ethanol in 0.01 M PBS and administered intravenously (0.2 nmol, 0.80 ± 0.30 MBq; tracer: 150 μL; tracer + blocking dose: 200 μL) to AR42J tumor-bearing Rj:NMRI-Foxn1^nu/nu mice (n = 4) under 2% isoflurane anesthesia. PET/CT images were acquired with Molecubes PET (β-CUBE) coupled with a CT (X-CUBE) (MOLECUBES NV, Ghent, Belgium) with two mice being imaged at the same time under 2% isoflurane anesthesia. Images were reconstructed to time frames 30 × 10, 15 × 60, 4 × 300, and 5 × 600 s. Quantitative image analysis was done with Carimas software (v 2.10, Turku PET Centre, Turku, Finland). Spherical ROIs were hand-drawn based on anatomical CT data and PET signal for the desired organs. The results are presented as standardized uptake values (SUVs).

**Q.** Which results are given for `C[N+](C)(CCNC(=O)Cc1ccc(-c2nncnn2)cc1)C[B-](F)(F)[18F]` [[^18F]6]?
**A.** logD [1]: -0.13 ± 0.06; hydrolytic stability, intact [2]: ≥ 99%; bone uptake in tibia ([3]; C57BL/6JRj female mice): 0.4 ± 0.1 % ID/g; gallbladder uptake ([3]; C57BL/6JRj female mice): 6.4 ± 2.5 % ID/g; bone uptake in tibia ([3]; SCID male mice): 0.3 ± 0.1 % ID/g; gallbladder uptake ([3]; SCID male mice): 3.5 ± 2.4 % ID/g; major elimination pathway ([3]; PET/CT and ex vivo biodistribution 270 min post injection): renal clearance
